ChEMBL document CHEMBL1132871, “Antimycobacterial activity of ionic fullerene derivatives” (Bioorg Med Chem Lett, 2000)

Tested on: Mycobacterium tuberculosis
Assay: The compound was tested for its ability to inhibit the growth of Mycobacterium tuberculosis strain H6/99; Resistant
Type: functional, organism-based

| SMILES | MIC |
| --- | --- |
| CO[C@H]1/C=C/O[C@@]2(C)Oc3c(C)c(O)c4c(O)c(c(/C=N/N5CCN(C)CC5)c(O)c4c3C2=O)NC(=O)/C(C)=C\C=C\[C@H](C)[C@H](O)[C@@H](C)[C@@H](O)[C@@H](C)[C@H](OC(C)=O)[C@@H]1C | Resistant |
| NNC(=O)c1ccncc1 | Resistant |
